Like-named read-outs stand apart in the source and are kept apart here.
Key:
H. pylori strain 26695 = test: MIC, broth microdilution test, strain 26695; format: cell-based; settings: Helicobacter pylori, 26695, 24 h, read-out: minimal inhibitory concentration (MIC) strain 26695
Procedure: (§1) The in vitro anti-bacterial activity of 2-OH-1,4-NQ compounds was assessed against the 26695 and SS1 strains of H. pylori. DMSO was used as control in all experiments.
(§2) Disc diffusion tests were performed in triplicate, including a DMSO-only control on each plate, as specified in the electronic supplementary material. Minimal inhibitory concentrations (MICs) were determined using a broth microdilution test in 24-well microtitre plates. For test inocula, an overnight preculture of H. pylori strains 26695 and SS1 was diluted to an OD600 of approximately 0.1 and 0.5 ml of this suspension was transferred to each well. Ten microlitres of twofold serial dilutions of each compound in DMSO, ranging in concentration from 0.625 to 20 µg ml^−1, were added and the covered plates were incubated for 24 h at 37°C with orbital shaking at 140 r.p.m. under microaerophilic conditions. The MIC was determined as the lowest compound concentration resulting in full growth inhibition after 24 h of incubation. All the tests were done in triplicate, including cell-free and DMSO-only controls.

HpThyX [1] = target: T1, HpThyX (Helicobacter pylori, UniProt O26061); test: tritium release (deprotonation) assay of [5-3H]dUMP; format: biochemical; settings: for remaining activity at 100 µM: 20 min, read-out: inhibition against ThyX (% remaining activity relative to control); for dTMP-forming activity: quantitative tritium release assay, 100 μM compound, 10 μM ThyX enzyme
T1 construct: His6; made in house; host or cells: Escherichia coli BL21 (plasmid pGL2, pBAD promoter)
T1 sequence (O26061 whole entry): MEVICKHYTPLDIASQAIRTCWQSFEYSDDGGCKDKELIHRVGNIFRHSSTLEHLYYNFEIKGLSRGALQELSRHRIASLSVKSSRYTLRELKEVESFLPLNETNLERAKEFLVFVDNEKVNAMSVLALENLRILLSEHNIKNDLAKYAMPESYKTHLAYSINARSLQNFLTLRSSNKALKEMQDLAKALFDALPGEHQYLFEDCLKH
Procedure: (§3) HpThyX activity was assessed by measuring either deprotonation of [5-^3H]dUMP or NAPDH oxidation activities.
In the tritium release (deprotonation) assays, typical reactions contained 10 mM MgCl2, 10% (v/v) glycerol, 500 µM FAD, 2 mM NADPH, 1 mM CH2H4Folate and 10 mM β-mercaptoethanol in 50 mM HEPES (pH 8). Different concentrations of dUMP were also included in the reaction mixtures. The specific activity of tritiated [5-^3H]dUMP (diammonium salt) stock was 15–30 Ci mmol^−1 (Moravek Biochemicals, CA, USA). 2-OH-1,4-NQ derivatives were prepared at 100 µM in 1% DMSO. Reactions were initiated by adding the enzyme (10 µM) and were stopped after 20 min incubation at 37°C.

H. pylori strain SS1 = test: MIC, broth microdilution test, strain SS1; format: cell-based; settings: Helicobacter pylori, 24 h, read-out: minimal inhibitory concentration (MIC) strain SS1
Procedure: as §1, §2

[2] = tolerance of orogastric treatment in infected mice; format: in vivo, NMRI mice; settings: orogastric three times a day, 0.375 mg mouse day^−1, one week; for effect on body or stomach weight: data not shown
Procedure: NMRI-specific pathogen-free mice (Charles River Laboratories) were orogastrically inoculated with 10^8 CFU of the H. pylori mouse-adapted strain SS1, prepared in 100 μl of peptone broth. Four groups of six to eight mice were infected by H. pylori strain SS1. Earlier experiments have established that after one week, colonization of mice is fully established. A negative control group of five mice was inoculated with peptone broth alone and was not colonized by H. pylori. One week after infection, three groups of mice were treated orogastrically three times a day with 500 µl of either compound 010-C, 010-E or 010-I dissolved in 2% β-cyclodextrin at 0.25 mg ml^−1 (0.375 mg mouse d^−1) during one week. As a control, the fourth group of mice was treated orogastrically three times a day by the same amount of 2% β-cyclodextrin (17.6 mM), the vehicle of the compounds. […] This average size is in agreement with the average size of β-cyclodextrin particles that self-aggregate in water at a concentration of 12 mM [39]. After treatment, viable H. pylori cells, colonizing the mouse stomach, were enumerated by culture of serial dilutions of homogenized tissue on blood agar plates containing bacitracin (200 μg ml^−1) and nalidixic acid (10 μg ml^−1) as in [40].

HpThyX [3] = target: T1, HpThyX; test: NADPH oxidation assay; format: biochemical; settings: estimated from slope of IC50 versus dUMP concentration
Procedure: as §3
NADPH oxidation assays were performed at 37°C in 96-well plates (Greiner Bio-One). One hundred microlitres of reaction mixture contained HEPES 50 mM (pH 8.6), NaCl 150 mM, FAD 50 µM, β-mercaptoethanol 1.43 mM, NADPH 500 µM and 10 µM of purified HpThyX. dUMP and 2-OH-1,4-NQ concentrations were varied across 12.5–200 µM and 0.3–100 µM, respectively. Microtitre plates were prepared and transferred to the microplate reader Chameleon II (Hidex). The reactions were started by automatically injecting NADPH into individual wells and ThyX activity was determined by following a decrease in absorbance at 340 nm. A molar extinction coefficient of 6220 M^−1 cm^−1 at 340 nm (ε340) was used to quantify NADPH oxidation. Samples with added DMSO and enzyme-free reactions were used as positive and negative controls, respectively.

AGS cells [4] = test: mitotoxicity, resazurin reduction; format: cell-based, human; settings: for mitotoxicity: 0.78 to 50 μg ml^−1, 4 h treatment; for effect on mitochondrial metabolism: low concentrations, resazurin reduction
Procedure: Mitochondrial toxicity (mitotoxicity) was assessed by measuring resazurin (7-hydroxy-3H-phenoxazin-3-one 10-oxide) reduction by following absorption changes at 570 nm (Mitochondrial Viability Assay; Abcam). Resazurin is an indicator dye that reports on oxidation–reduction reactions taking place in the mitochondria of living cells. AGS cells (≅2.5 × 10^5cells well^−1) cultured in a DMEM galactose/glutamine-supplemented medium were seeded in sterile white-walled 96-well clear-bottom microplates and treated for 4 h with different doses of 2-OH-1,4-NQ compounds ranging from 0.78 to 50 μg ml^−1. Addition of the stain solution was followed by a further 4 h incubation at 37°C (5% CO2, 90% humidity) and A570 was measured. Rotenone, an inhibitor of the mitochondrial respiratory chain complex I, was used as a positive control.

AGS cells [5] = test: cytotoxicity, LDH release; format: cell-based, human; settings: for cytotoxicity: 0.78 to 50 μg ml^−1, 24 h
Procedure: Cytotoxicity of the 2-OH-1,4-NQ derivatives was assessed by measuring lactate dehydrogenase (LDH) release following manufacturer's instructions (Cytotoxicity Detection Kit; Roche Applied Sciences). Briefly, AGS cells (human gastric adenocarcinoma cell line; ATCC Catalog no. CRL-1739TM) were cultured in Ham's F-12 K medium containing 1% of FBS. A total of 3 × 10^4 cells were added per well in a sterile 96-well tissue culture plate. Cells were then treated with different doses of 2-OH-1,4-NQ compounds ranging from 0.78 to 50 μg ml^−1. After a 24 h incubation at 37°C (5% CO2, 90% humidity), the microplates were centrifuged at 250g for 10 min, and the supernatants were carefully removed and transferred into optically clear 96-well microplates (Greiner Bio-One). The dye solution containing iodotetrazolium chloride and sodium lactate was then added to each well to quantify the amount of LDH released into the extracellular medium. LDH was quantified by measuring the A490 using a PowerWave Microplate Spectrophotometer (BioTek).

H. pylori 26695 = test: bactericidal activity, viable counts (CFU) in liquid culture; format: cell-based, Helicobacter pylori; settings: exposure up to 24 h, replating on solid media
Procedure: To determine the bactericidal activity of C8-C1 against H. pylori, liquid BHI medium was inoculated with an overnight culture of H. pylori 26695 at an initial OD600 of 0.1. C8-C1 or chloramphenicol, used as bacteriostatic control, were added after 4 h of culture time at final concentrations of 5 and 30 µg ml^−1. To determine the viable counts of surviving bacteria (colony forming units, CFU), aliquots of culture were then plated in triplicate on blood agar plates after 3 and 24 h exposure.

[6] = semi-quantitative deprotonation assay, remaining activity, lower = stronger inhibition

| Structure (SMILES) | MIC (H. pylori strain 26695; full growth inhibition) | MIC (H. pylori strain 26695; value in brackets) | remaining activity at 100 µM (HpThyX [1]; [6]) | MIC (H. pylori strain SS1; full growth inhibition) | MIC (H. pylori strain SS1; value in brackets) | also measured |
| --- | --- | --- | --- | --- | --- | --- |
| O=C1C(O)=C(Cc2ccc(-c3ccc(Cl)cc3)cc2)C(=O)c2ccccc21 [007-B] | 10 µg/mL | 26.7 µM | 60.2% | 10 µg/mL | 26.7 µM |  |
| O=C1C(O)=C(Cc2ccc(OC(F)(F)F)cc2)C(=O)c2ccccc21 [007-C] | 5 µg/mL |  |  | 5 µg/mL |  | remaining activity at 100 µM (HpThyX [1]): 62.5% |
| CC(C)Oc1ccc(CC2=C(O)C(=O)c3ccccc3C2=O)cc1 [007-D] | ≥ 20 µg/mL | ≥ 62 µM | 45.7% | 20 µg/mL | 62 µM |  |
| O=C1C(O)=C(Cc2ccc(F)cc2)C(=O)c2ccccc21 [007-E] | 10 µg/mL | 35.4 µM | 66.3% | 10 µg/mL | 35.4 µM |  |
| O=C1C(O)=C(Cc2ccc(C(F)(F)F)cc2)C(=O)c2ccccc21 [007-F] | 5 µg/mL | 15.1 µM |  | 10 µg/mL | 15.1 µM | remaining activity at 100 µM (HpThyX [1]): 60.6% |
| O=C1C(O)=C(Cc2ccc(Oc3ccccc3)cc2)C(=O)c2ccccc21 [007-G] | 20 µg/mL | 56.2 µM | 61.8% | 5 µg/mL | 14 µM |  |
| O=C1C(O)=C(Cc2ccc(Cl)cc2)C(=O)c2ccccc21 [010-A] | 10 µg/mL | 33.5 µM | 49.5% | 5 µg/mL | 16.7 µM |  |
| O=C1C(O)=C(Cc2cc(F)cc(F)c2)C(=O)c2ccccc21 [010-B] | 10 µg/mL | 33.3 µM | 74.3% | 10 µg/mL | 33.3 µM |  |
| O=C1C(O)=C(Cc2ccco2)C(=O)c2ccccc21 [010-C] | 10 µg/mL | 39.3 µM | 76.4% | 10 µg/mL | 39.3 µM | tolerance in mice [2]: tolerated in mice; effect on body or stomach weight [2]: None of the aforementioned treatments affected either the body or stomach weight; Ki (HpThyX [3]): 28 nM; dTMP-forming activity (HpThyX [1]): suppressed the dTMP-forming activity; mitotoxicity (AGS cells [4]): non-mitotoxic; effect on mitochondrial metabolism (AGS cells [4]): activated the mitochondrial metabolism; cytotoxicity (AGS cells [5]): non-cytotoxic |
| O=C1C(O)=C(Cc2cccs2)C(=O)c2ccccc21 [010-D] | 10 µg/mL | 37 µM | 36.4% | 10 µg/mL | 37 µM |  |
| O=C1C(O)=C(Cc2ccc(F)c(C(F)(F)F)c2)C(=O)c2ccccc21 [010-E] | 5 µg/mL | 14.3 µM | 77.7% | 5 µg/mL | 14.3 µM | tolerance in mice [2]: tolerated in mice; effect on body or stomach weight [2]: None of the aforementioned treatments affected either the body or stomach weight; dTMP-forming activity (HpThyX [1]): suppressed the dTMP-forming activity; mitotoxicity (AGS cells [4]): non-mitotoxic; effect on mitochondrial metabolism (AGS cells [4]): activated the mitochondrial metabolism; cytotoxicity (AGS cells [5]): non-cytotoxic |
| O=C1C(O)=C(Cc2ccc(F)c(Cl)c2)C(=O)c2ccccc21 [010-F] | 10 µg/mL | 31.6 µM | 74.5% | 5 µg/mL | 15.8 µM |  |
| COc1cc(CC2=C(O)C(=O)c3ccccc3C2=O)ccc1O [010-H] | 20 µg/mL | 64.5 µM | 57.8% | 10 µg/mL | 32.2 µM |  |
| O=C1C(O)=C(C=Cc2ccc(F)cc2)C(=O)c2ccccc21 [010-J] | 2.5 µg/mL | 8.49 µM | 49.7% | 2.5 µg/mL | 8.49 µM |  |
| COc1ccc(CC2=C(O)C(=O)c3ccccc3C2=O)cc1OC [010-K] | 20 µg/mL | 61.7 µM | 75.1% | 10 µg/mL | 30.8 µM |  |
| O=C1C(O)=C([C@H]2CC[C@H](c3ccc(Cl)cc3)CC2)C(=O)c2ccccc21 [atovaquone, 2-(trans-4-(4-chlorophenyl)cyclohexyl)-3-hydroxy-1,4-naphthoquinone, reference compound] |  |  |  |  |  | mitotoxicity (AGS cells [4]): targeted mitochondria; cytotoxic effect (AGS cells [5]; 25 µg ml^−1, 24 h): 48 ± 5% |
| O=C(N[C@H](CO)[C@H](O)c1ccc([N+](=O)[O-])cc1)C(Cl)Cl [chloramphenicol, reference compound] |  |  |  |  |  | kind of anti-microbial activity / viable cells after exposure (H. pylori 26695): bacteriostatic |
